Tested on: promoter region of the gene encoding human apoAI
Test: Activity to enhance the expression of human apoAI (apoAI promoter-luciferase reporter in HepG2 cells)
Type: cell-based
Conditions: HepG2 cells stably expressing apoAI promoter-luciferase reporter; compounds at 0 to 10 μg/mL, 24 hours incubation
Protocol: The promoter region of the gene encoding human apoAI was isolated, and ligated upstream the structure gene of firefly luciferase to construct a reporter plasmid. The reporter plasmid and a marker plasmid conferring the neomycin resistance were co-infected to cell lines derived from human hepatoma, HepG2 cells, and the cell lines were incubated in a selection medium comprising DMEM medium containing 10% fetal calf serum supplemented with G418 (Final concentration: 0.7 mg/mL, Gibco) to give established strains that stably expressed the reporter molecule. The strains were seeded to a 96-well culture plates at a density of 50,000 cells per well, and incubated for 48 hours at 37° C. under an atmosphere of 5% carbon dioxide. […] The concentration of the compounds, which intensified the luciferase activity twice compared to that of control (DMSO without any compound of the invention added) was set as the minimal effective dose (MED).

Molecule | MED (minimum effective dose: concentration of the compound which intensified the luciferase activity twice compared to control) [µg/mL]
2-(2-thiophen-3-yl-vinyl)benzothiazole [Ib-91] | 0.7
FC(F)(F)c1ccc(C=Cc2ccccn2)cc1 [Ib-9, 2-[2-(4-trifluorophenyl)vinyl]pyridine] | 0.71
C(=Cc1ccccc1)Sc1ccccn1 [Id-4, 2-styrylsulfanil-pyridine] | 1.0
COc1cc(C=CC=Cc2ccccn2)ccc1OC(C)=O [Ic-18, phenyl 2-methoxy-4-(4-pyridin-2-yl-buta-1,3-dienyl)acetate] | 1.9
2-phenyl-5-pyridin-2-yl-penta-2,4-diene nitrile [Ic-76] | 0.23

Tested on: not given
Test: not given
Conditions: not given

melting point [°C] | Molecule
126 to 127 | c1ccc(-c2ccc(-c3cnc4ccccc4n3)cc2)cc1 [Ia-10, 2-(biphenyl-4-yl)quinoxaline]
132 to 133 | c1ccc2nc(-c3ccsc3)ccc2c1 [Ia-15, 2-(thiophen-3-yl)quinoline]
86 to 87 | c1ccc2nc(-c3ccsc3)cnc2c1 [Ia-6, 2-(thiophen-3-yl)quinoxaline]
101 to 102 | COc1ccc(-c2cnc3ccccc3n2)cc1 [Ia-3, 2-(4-methoxyphenyl)quinoxaline]
180 to 182 | c1ccc(-c2ccc(-c3ccc4ccccc4n3)cc2)cc1 [Ia-12, 2-(biphenyl-4-yl)quinoline]
113 to 115 | Clc1ccc(-c2ccc3ccccc3n2)cc1 [Ia-16, 2-(4-chlorophenyl)quinoline]
